Patent publication US10647680B2, “Urea compound, preparation method therefor and medical use thereof” (Ancureall Pharmaceutical (Shanghai) Co., Ltd., priority 2016, dated 2020)

Tests used:
[1] = tested on: KG-1 (expressing FGFR1OP2-FGFR1 fusion protein); test: In vitro growth inhibition (GI50), KG-1; assay type: cell-based; settings: Homo sapiens; Cell lines of leukemia; read-out: GI 50 KG-1 FGFR1OP 2-FGFR1
NCI-H1581 (FGFR1 amp) = test: In vitro growth inhibition (GI50), NCI-H1581; assay type: cell-based; settings: Homo sapiens
From the text: Tumor cell line is an effective cell model for studying the inhibition of tumor cell growth or proliferation in vitro. In the present invention, a representative tumor cell line was selected to determine the cell growth inhibition activity of the present compound. All cell lines used were from ATCC, DSMZ, and the Cell Bank of the Chinese Academy of Sciences. Cell culture conditions and methods were in accordance with the requirements of each cell line. Cells were subcultured in vitro for no more than 3 passages each time, and as required, single-clone purification and identification of cell lines could be carried out.
The cell culture media used were RPMI1640 (Gibco), MEM (Gibco), McCOY'S5A (Gibco), and IMDM (Gibco). The complete medium was prepared by supplement with 5˜20% fetal calf serum (Gibco), 1% double-antibiotics (10000 units/mL penicillin and 10000 units/mL), 2 mM glutamine or 1 mM sodium pyruvate, respectively.
Human non-small cell lung cancer cell NCI-H1581 (FGFR1 amp, ATCC) is an FGFR1 gene amplified/overexpressed tumor cell line. It was cultured in complete medium comprising 1×RPMI1640 with 10% FBS.
Adherent cells were digested with 0.25% pancreatin-EDTA (Gibco). The suspension cells were collected by centrifugation. The supernatant was discarded and the cell pellet was resuspended and counted. Different cell concentrations (5˜10×10^4 cells/mL) were prepared according to the growth cycle of each cell line and then seeded on a 96-well plate (Corning), 100 μL/well. The cells were incubated overnight at 37° C., 5% CO2. The compounds were added to the cells on the second day with 2 wells in parallel. The final concentration of organic solvent shall not exceed 1%. The cells were continually incubated for 3 to 5 days, and then subjected to MTT assay.
The compound of the present invention and the control compound were dissolved in DMSO (Sigma) respectively, with the purity of more than 98%. The compound was stored in a concentration of 10 mM at −20° C. and diluted to 2- or 10-fold series prior to use.
Dojindo CCK8 reagent kit was used as MTT assay. THERMO […] FC meter was used as microplate reader.
For adherent cells, culture medium was removed and immediately replaced with the fresh prepared medium which contains 10% CCK8 reagent (100 μL/well). For the suspension cells, CCK8 was directly added to 10% of the final concentration. The cells were continually incubated for 1˜4 h. When a dark yellow color could be observed in the solvent control wells, the absorbance value at OD450 nm was measured and the cell growth rate was calculated according to the following formula: Cell Growth Rate (%)=100*(T−T0)/(C−T0) T=optical density of drug treatment cell well—optical density of blank control well; T0=optical density of cell well before drug treatment—optical density of blank control well; C=optical density of cell well of solvent control group—optical density of blank control well. The concentration value of 50% inhibition of cell growth (GI50) was calculated according to the drug concentration and cell growth rate curve. The experiment was independently repeated 1˜3 times, and subject to biological statistical analysis. 4. Experimental Results
Tumor cell growth inhibition test was performed by selecting representative compounds (compounds 4, 11, 12, 16, 27, 68, 71, 77, 79, 89 and 116 of the present invention). The initial concentration of the compound was 5,000 nM, then it was serially diluted by 2-fold or 10-fold to 0.01 nM. The GI50 value of each test compound was calculated according to the GI50 assay and calculation method. The experiments were repeated 1 to 3 times, and data were subjected to biological statistical analysis.

Structure (SMILES)	GI50 [1] [nM]	GI50 (NCI-H1581 (FGFR1 amp)) [nM]
CC(C)(C)c1cc(NC(=O)Nc2ccc(-n3cnc4cc(O)ccc43)cc2)no1 [Compound 4, 1-(5-tert-butyl-isoxazol-3-yl)-3-[4-(5-hydroxy-benzimidazol-1-yl)-phenyl]-urea]	100 to 1000	> 2500
CC(C)(C)c1cc(NC(=O)Nc2ccc(-n3cnc4cc(OCCO)ccc43)cc2)no1 [Compound 11, 1-(5-tert-butyl-isoxazol-3-yl)-3-{4-[5-(2-hydroxy-ethoxyl)-benzimidazol-1-yl]-phenyl]-urea]	> 1000	> 2500
CC(C)(C)c1cc(NC(=O)Nc2ccc(-n3cnc4cc(OCCN5CCOCC5)ccc43)cc2)no1 [Compound 16, 1-(5-tert-butyl-isoxazol-3-yl)-3-{4-[5-(2-morpholin-4-yl-ethoxyl)-benzimidazol-1-yl]-phenyl}-urea]	> 1000	> 2500
CC(C)(C)c1cc(NC(=O)Nc2ccc(-n3cnc4ccc(OCCN5CCOCC5)cc43)cc2)no1 [Compound 27, 1-(5-tert-butyl-isoxazol-3-yl)-3-{4-[6-(2morpholin-4-yl-ethoxyl)-benzimidazol-1-yl]-phenyl}-urea]	100 to 1000	> 2500
CC(C)(C)c1cc(NC(=O)Nc2ccc(-n3cnc4ccccc43)cc2)[nH]n1 [Compound 68, 1-(4-benzimidazol-1-yl-phenyl)-3-(5-tert-butyl-2H-pyrazol-3-yl)-urea]	> 1000	> 2500
COc1ccc2c(c1)ncn2-c1ccc(NC(=O)Nc2cc(C(C)(C)C)n[nH]2)cc1 [Compound 71, 1-(5-tert-butyl-2H-pyrazol-3-yl)-3-[4-(5-methoxyl-benzimidazol-1-yl)-phenyl]-urea]	> 1000	> 2500
COCCOc1ccc2c(c1)ncn2-c1ccc(NC(=O)Nc2cc(C(C)(C)C)n[nH]2)cc1 [Compound 77, 1-(5-tert-butyl-2H-pyrazol-3-yl)-3-{4-[5-(2-methoxyl-ethoxyl)-benzimidazol-1-yl]-phenyl}-urea]	> 1000	> 2500
CC(C)(C)c1cc(NC(=O)Nc2ccc(-n3cnc4cc(OCCO)ccc43)cc2)[nH]n1 [Compound 79, 1-(5-tert-butyl-2H-pyrazol-3-yl)-3-{4-[5-(2-hydroxy-ethoxyl)-benzimidazol-1-yl]-phenyl]urea]	> 1000	> 2500
CC(C)(C)c1cc(NC(=O)Nc2ccc(-n3cnc4cc(OCCN5CCOCC5)ccc43)cc2)[nH]n1 [Compound 89, 1-(5-tert-butyl-2H-pyrazol-3-yl)-3-{4-[5-(2-morpholin-4-yl-ethoxyl)-benzimidazol-1-yl]-phenyl}-urea]	> 1000	> 2500
CC(C)(C)c1cc(N)n(C(=O)Nc2ccc(-n3cnc4ccccc43)cc2)n1 [Compound 116, 5-amino-3-tert-butyl-pyrazol-1-carboxylic acid (4-benzimidazol-1-yl-phenyl)-amide]	> 1000	> 2500
